# In PubChem BioAssay (NCI):
#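 Following 48 hours of exposure in 96-well plates, responses at five concentrations were used to interpolate endpoints linearly. GI50 marks 50% less growth. The concentration for full growth arrest is given as TGI.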
# Key:
# Assay in all cases: inhibition of tumour cell growth, NCI panel, 48 h
# 786-0 renal = test system: 786-0 renal
# DU-145 prostate = test system: DU-145 prostate
# HCT-116 colon = test system: HCT-116 colon
# LOX IMVI melanoma = test system: LOX IMVI melanoma
# MDA-MB-231 breast = test system: MDA-MB-231 breast
# NCI/ADR-RES ovarian = test system: NCI/ADR-RES ovarian
# SF-295 CNS = test system: SF-295 CNS
# SNB-19 CNS = test system: SNB-19 CNS
# SNB-75 CNS = test system: SNB-75 CNS
# SR leukemia = test system: SR leukemia
Structure (SMILES),GI50 (786-0 renal),TGI (786-0 renal),GI50 (DU-145 prostate),TGI (DU-145 prostate),GI50 (HCT-116 colon),TGI (HCT-116 colon),GI50 (LOX IMVI melanoma),TGI (LOX IMVI melanoma),GI50 (MDA-MB-231 breast),TGI (MDA-MB-231 breast),GI50 (NCI/ADR-RES ovarian),TGI (NCI/ADR-RES ovarian),GI50 (SF-295 CNS),TGI (SF-295 CNS),GI50 (SNB-19 CNS),TGI (SNB-19 CNS),GI50 (SNB-75 CNS),TGI (SNB-75 CNS),GI50 (SR leukemia),TGI (SR leukemia)
CC(C)(C)c1ccc([I+]c2ccc(C(C)(C)C)cc2)cc1,1.69 µM,3.77 µM,1.7 µM,3.53 µM,1.25 µM,4 µM,1.31 µM,2.74 µM,1.35 µM,2.83 µM,21.5 µM,89.5 µM,2.22 µM,5.28 µM,1.11 µM,3.24 µM,1.44 µM,6.1 µM,0.935 µM,3.15 µM
COC(=O)C1=Nc2c(C)nn(-c3ccccc3)c2N=C(c2ccc(C)cc2)C1,–,> 10 µM,–,> 10 µM,–,> 10 µM,–,> 10 µM,–,> 10 µM,–,> 10 µM,–,> 10 µM,–,> 10 µM,–,> 10 µM,–,> 10 µM
COC(CCP(=O)(c1ccccc1)c1ccccc1)(C(=O)c1ccccc1)c1ccccc1 (centres undefined),10.3 µM,28 µM,12 µM,24.3 µM,4.48 µM,16.5 µM,5.12 µM,19.6 µM,2.69 µM,17 µM,4.93 µM,20.9 µM,0.135 µM,1.49 µM,5.75 µM,19.1 µM,5.76 µM,22 µM,0.967 µM,> 100 µM
COC(=O)c1ccccc1NC(=O)/C(=N\NC(C)(C)C)C(C#N)c1nc(-c2ccc([N+](=O)[O-])cc2)cs1 (centres undefined),–,> 100 µM,–,> 100 µM,–,> 100 µM,–,> 100 µM,–,> 100 µM,–,> 100 µM,–,> 100 µM,–,> 100 µM,–,> 100 µM,–,> 100 µM
CC(ONC(=O)c1cc(C(F)(F)F)cc(C(F)(F)F)c1)C(=O)Nc1ccc(Cl)cc1 (centres undefined),5.61 µM,22 µM,11.5 µM,> 100 µM,4.97 µM,16.4 µM,4.02 µM,14 µM,8.7 µM,36.5 µM,6.2 µM,41.6 µM,3.66 µM,30.9 µM,5.64 µM,> 100 µM,15 µM,70.7 µM,–,1.16 µM
C=C=C(C)[Si](C)(C)C,–,> 100 µM,–,> 100 µM,–,> 100 µM,–,> 100 µM,–,> 100 µM,–,> 100 µM,–,> 100 µM,–,> 100 µM,–,> 100 µM,–,> 100 µM
COc1ccc(C(O)CNC(=O)c2ccccc2)cc1 (centres undefined),–,> 100 µM,–,> 100 µM,–,> 100 µM,–,> 100 µM,–,> 100 µM,–,> 100 µM,–,> 100 µM,–,> 100 µM,–,> 100 µM,–,> 100 µM
